From patent US6846843B2, “β-thioamino acids” (Gruenenthal GmbH, priority 2000, dated 2005)
Where a name gives a salt, the structure may show the parent alone. Read-outs that look alike come from different tables or passages of the source.

What was measured:
gabapentin binding site = test: Gabapentin binding assay (displacement of gabapentin from its binding site); conditions: for IC50: displacement of gabapentin, read-out: Affinity (IC50); for % Inhibition (Concn.): inhibition of gabapentin binding
Experimental: Gabapentin is used in the binding assay in order to determine the binding and affinities of the selected compounds. The affinity of the compounds according to the invention is measured via the displacement of gabapentin from its binding site.

[1] = test system: formalin-induced nociception; test: Formalin test on mice (second phase); assay type: in vivo; conditions: mouse, second phase, read-out: Mouse Formalin Test ED50
Experimental: The investigations to determine the antinociceptive action of the compounds according to the invention were carried out by the formalin test on male albino mice (NMRI, 25-35 g, Iffa Credo, Belgium).
In the formalin test the first (early) phase (0-15 minutes after the formalin injection) and the second (late) phase (15-60 minutes after the formalin injection) differ (D. Dubuisson et al., Pain, Vol. 4, pp. 161-174 (1977)). The early phase, being a direct reaction to the formalin injection, constitutes a model for acute pain, whereas the late phase is regarded as a model for persistent (chronic or inflammatory) pain (T. J. Coderre et al., Pain, Vol. 52, pp. 259-285 (1993)).
The compounds according to the invention were investigated in the second phase of the formalin test in order to obtain information on the effects of substances in chronic/inflammatory pain.
By means of a single subcutaneous formalin injection (20 μl, 1% aqueous solution) into the dorsal side of the right-hand rear paw, a nociceptive reaction was induced in unconstrained experimental animals, manifested in a noticeable licking and biting of the affected paw. The nociceptive behavior during the investigation period in the second (late) phase of the formalin test was continuously monitored by observing the animals. The pain reaction was quantified by totalling the time in seconds during which the animals continued to lick and bite the affected paw during the investigation period. After injecting substances that have an antinociceptive effect in the formalin test, the aforedescribed behavior pattern of the animals is reduced or possibly even eliminated. Corresponding to the substance tests, in which the animals had been injected with the test substance before formalin, the control animals were injected with a vehicle, i.e. solvent (e.g. 0.9% NaCl solution) before the formalin injection. The behavior of the animals after administration of the substance (n=10 per substance dose) was compared with a control group (n=10).
Based on the quantification of the pain reaction, the effect of the substance in the formalin test was determined as the change in the control in percentage terms. The ED50 calculations were carried out by means of regression analysis. The application time before the formalin injection (intraperitoneally: 15 minutes, intravenously: 5 minutes) was chosen depending on the type of application of the compounds according to the invention.

[2] = test system: phenylquinone-induced writhing reactions; test: Phenylquinone-induced writhing test in mice; assay type: in vivo; conditions: iv; mouse, i.v., 10 minutes before phenylquinone; read-out: Writhing Mouse i.v. ED50
Experimental: The antinociceptive effectiveness of the compounds according to the invention was investigated in mice using the phenylquinone-induced writhing test as modified by I. C. Hendershot and J. Forsaith, J. Pharmacol. Exp. Ther. 125, 237-240 (1959)). Male NMRI mice weighing 25-30 g were used for this purpose. Groups of 10 animals per substance dose were given intraperitoneally 10 minutes after intravenous administration of a compound according to the invention, 0.3 ml/mouse of a 0.02% aqueous solution of phenylquinone (phenylbenzoquinone, from Sigma, Deisenhofen; solution prepared by addition of 5% of ethanol and storage in a water bath at 45° C.). The animals were placed individually in observation cages. The number of pain-induced stretching movements (so-called writhing reactions=contortion of the body accompanied by stretching of the rear extremities) 5-20 minutes after administration of the phenylquinone were counted using a push-button counter. Animals that had received physiological saline solution i.v. and phenylquinone […]. served as controls.
All substances were tested in the standard dose of 10 mg/kg.

| SMILES | IC50 (gabapentin binding site) | % Inhibition (Concn.) (gabapentin binding site) | further results |
| --- | --- | --- | --- |
| CCCCCCC(C)(S)C(N)C(=O)O.Cl (racemic) [Compound 5, rac-2-amino-3-mercapto-3-methylnonanoic acid hydrochloride] |  |  | ED50 ([1]; ip, i.p.): 54 mg/kg; IC50 (gabapentin binding site; hydrochloride): 70 nM |
| CCC(S)(CC)C(N)C(=O)O (racemic) [Compound 7, rac-2-amino-3-ethyl-3-mercaptopentanoic acid hydrochloride] | 258 nM |  |  |
| Cl.NC(C(=O)O)C1(S)CCCC1 (racemic) [Compound 8, rac-amino-(1-mercaptocyclopentyl)acetic acid hydrochloride] | 151 nM |  | ED50 ([1]; iv, i.v.): 79 mg/kg; ED50 [2]: 70 mg/kg |
| CCCCCCCC(C)(S)C(N)C(=O)O.Cl (racemic) [Compound 10, rac-threo-2-amino-3-mercapto-3-methyldecanoic acid hydrochloride] |  |  | ED50 ([1]; ip, i.p.): 105 mg/kg; IC50 (gabapentin binding site; hydrochloride): 150 nM |
| CCCCCCCC(C)(S)C(N)C(=O)O (racemic) [Compound 11, rac-erythro-2-amino-3-mercapto-3-methyldecanoic acid hydrochloride] |  |  | IC50 (gabapentin binding site; hydrochloride): 120 nM |
| CCCCCCC(C)(S)C(N)C(=O)O (racemic) [Compound 12, rac-threo-2-amino-3-mercapto-3-methylnonanoic acid hydrochloride] |  |  | ED50 ([1]; ip, i.p.): 78 mg/kg; IC50 (gabapentin binding site; hydrochloride): 70 nM |
| CCCCCCC(C)(S)C(N)C(=O)O (racemic) [Compound 13, rac-erythro-2-amino-3-mercapto-3-methylnonanoic acid hydrochloride] |  |  | IC50 (gabapentin binding site; hydrochloride): 30 nM |
| CCCCCC(C)(S)C(N)C(=O)O (racemic) [Compound 14, rac-threo-2-amino-3-mercapto-3-methyloctanoic acid hydrochloride] |  |  | IC50 (gabapentin binding site; hydrochloride): 100 nM |
| Cl.NC(C(=O)O)C1(S)CCCCCC1 (racemic) [Compound 18, rac-amino-(1-mercaptocycloheptyl)acetic acid hydrochloride] |  | 15% (10^−5 μm) |  |
| CCCCCCC(C)(SCc1ccccc1)C(N)C(=O)O (racemic) [Compound 22, rac-2-amino-3-benzylsulfanyl-3-methyl-nonanoic acid hydrochloride] | 336 nM |  |  |
| CCCCCCCC(C)(SCc1ccccc1)C(N)C(=O)O.Cl (racemic) [Compound 23, rac-2-amino-3-benzylsulfanyl-3-methyldecanoic acid hydrochloride] |  | 91% (10^−5 μm) |  |
| Cl.NC(C(=O)O)C(S)(c1ccc(F)cc1)C1CC1 (racemic) [Compound 25, rac-2-amino-3-cyclopropyl-3-(4-fluorophenyl)-3-mercapto-propionic acid hydrochloride] |  | 40% (10^−5 μm) |  |
| CC(S)(C1CC1)C(N)C(=O)O (racemic) [Compound 26, rac-2-amino-3-cyclopropyl-3-mercaptobutanoic acid hydrochloride] | 703 nM |  |  |
| CC(S)(C1CCC1)C(N)C(=O)O (racemic) [Compound 27, rac-2-amino-3-cyclobutyl-3-mercapto-butanoic acid hydrochloride] | 589 nM |  |  |
| CC(S)(C1CCCCC1)C(N)C(=O)O (racemic) [Compound 28, rac-2-amino-3-cyclohexyl-3-mercaptobutanoic acid hydrochloride] | 1320 nM |  |  |
| CC(S)(c1cccs1)C(N)C(=O)O.Cl (racemic) [Compound 29, rac-2-amino-3-mercapto-3-thiophen-2-yl-butanoic acid hydrochloride] |  | 30% (10^−5 μm) |  |
| NC(C(=O)O)C1(S)CCCCC1 (racemic) [Compound 31, rac-amino-(1-mercaptocyclohexyl)ethanoic acid hydrochloride] | 187 nM |  |  |
| CC1CCCC(S)(C(N)C(=O)O)C1 (racemic) [Compound 32, rac-amino-(1-mercapto-3-methylcyclohexyl)ethanoic acid hydrochloride] | 223 nM |  |  |
| CC1CCCCC1(S)C(N)C(=O)O (racemic) [Compound 33, rac-amino-(1-mercapto-2-methylcyclohexyl)ethanoic acid hydrochloride] | 528 nM |  |  |
| CC1CCC(S)(C(N)C(=O)O)CC1 (racemic) [Compound 34, rac-amino-(1-mercapto-4-methylcyclohexyl)ethanoic acid hydrochloride] | 1000 nM |  |  |
| Cl.NC(C(=O)O)C1(S)CCSCC1 (racemic) [Compound 35, rac-amino-(4-mercaptotetrahydrothiopyran-4-yl)ethanoic acid hydrochloride] |  | 84% (10^−5 μm) |  |
| CC(C)C(C)(S)C(N)C(=O)O.Cl (racemic) [Compound 36, rac-2-amino-3-mercapto-3,4-dimethylpentanoic acid hydrochloride] |  | 88% (10^−5 μm) |  |
| CCC(C)C(C)(S)C(N)C(=O)O (racemic) [Compound 37, rac-2-amino-3-mercapto-3,4-dimethylhexanoic acid hydrochloride] | 196 nM |  |  |

More lines, main results first:

| IC50 (gabapentin binding site) | % Inhibition (Concn.) (gabapentin binding site) | SMILES | further results |
| --- | --- | --- | --- |
| 268 nM |  | CCC(C)(S)C(N)C(=O)O (racemic) [Compound 1, rac-2-amino-3-mercapto-3-methylpentanoic acid hydrochloride] |  |
| 165 nM |  | CCCC(C)(S)C(N)C(=O)O.Cl (racemic) [Compound 2, rac-2-amino-3-mercapto-3-methylhexanoic acid hydrochloride] | ED50 ([1]; iv, i.v.): 158 mg/kg |
| 280 nM | 99.7% | CCCCC(C)(S)C(N)C(=O)O.Cl (racemic) [Compound 3, rac-2-amino-3-mercapto-3-methylheptanoic acid hydrochloride] |  |
| 339 nM | 97.5% | CCCC(S)(CC)C(N)C(=O)O.Cl (racemic) [Compound 9, rac-amino-3-ethyl-3-mercaptohexanoic acid hydrochloride] |  |
|  | 92% (10^−5 μm) | CCCCCC(C)(SCC)C(N)C(=O)O.Cl (racemic) [Compound 15, rac-2-amino-3-ethylsulfanyl-3-methyloctanoic acid hydrochloride] |  |
| 1800 nM | 93% | CCCCCC(C)(SCc1ccccc1)C(N)C(=O)O (racemic) [Compound 16, rac-threo-2-amino-3-benzylsulfanyl-3-methyl-octanoic acid hydrochloride] |  |
| 2350 nM |  | CCCC(S)(CCC)C(N)C(=O)O (racemic) [Compound 17, rac-2-amino-3-mercapto-3-propyl-3-hexanoic acid hydrochloride] |  |
| 271 nM |  | CCCCCCC(C)(SCC)C(N)C(=O)O (racemic) [Compound 19, rac-2-amino-3-ethylsulfanyl-3-methylnonanoic acid hydrochloride] |  |
| 3050 nM |  | CCCCCCC(C)(SCCC)C(N)C(=O)O (racemic) [Compound 20, rac-2-amino-3-methyl-3-propylsulfanylnonanoic acid hydrochloride] |  |
| 12400 nM |  | CCCCCCSC(C)(CCCCCC)C(N)C(=O)O (racemic) [Compound 21, rac-2-amino-3-hexylsulfanyl-3-methylnonanoic acid hydrochloride] |  |
|  | 90% (10^−5 μm) | CCCCCCCC(C)(SCC)C(N)C(=O)O.Cl (racemic) [Compound 24, rac-2-amino-3-ethylsulfanyl-3-methyldecanoic acid hydrochloride] |  |
| 314 nM |  | CCCCC(S)(CC)C(N)C(=O)O (racemic) [Compound 30, rac-2-amino-3-ethyl-3-mercaptoheptanoic acid hydrochloride] |  |
